Measurements reported in ChEMBL document CHEMBL1921729, “A small nonrule of 3 compatible fragment library provides high hit rate of endothiapepsin crystal structures with various fragment chemotypes” (J Med Chem, 2011).

What was measured:
[1] = target: T1, Endothiapepsin (Cryphonectria parasitica) (UniProt P11838); test: Inhibition of Cryphonectria parasitica endothiapepsin using Abz-Thr-Ile-Nle-p-nitro-Phe-Gln-Arg-NH2 as substrate at 1 mM by fluorescence spectrophotometry analysis
T1 sequence (whole entry): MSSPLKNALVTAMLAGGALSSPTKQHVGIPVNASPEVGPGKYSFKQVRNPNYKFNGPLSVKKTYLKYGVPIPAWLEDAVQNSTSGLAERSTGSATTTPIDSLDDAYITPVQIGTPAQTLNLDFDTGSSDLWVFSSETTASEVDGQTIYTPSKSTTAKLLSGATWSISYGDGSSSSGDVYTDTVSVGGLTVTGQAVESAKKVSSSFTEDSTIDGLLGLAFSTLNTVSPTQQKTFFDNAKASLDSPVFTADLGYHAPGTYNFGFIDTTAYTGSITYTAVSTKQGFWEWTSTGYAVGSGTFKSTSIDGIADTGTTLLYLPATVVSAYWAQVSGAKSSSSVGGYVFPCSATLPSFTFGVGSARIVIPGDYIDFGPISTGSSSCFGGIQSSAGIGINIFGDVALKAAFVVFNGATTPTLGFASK

[2] = Solubility of the compound in aqueous buffer at pH 7.4 by UV spectrophotometry; type: physicochemical

inhibition [1] [%]	solubility [2] [µM]	SMILES
50	> 1500	c1cc(CNc2ccc3c(c2)OCCO3)ccn1
87	> 1500	OC(COCc1ccccc1F)CN1CCCC1 (configuration not stated)
66	> 1500	CNCc1ccc(Oc2cccnc2)o1
49	> 1500	O=C(CN1CCCCC1)Nc1ccc2c(c1)OCO2
89	> 1500	NC1=NCc2ccccc21
84	> 1500	N=C(N)SCc1ccc(Cl)cc1
84	> 1500	O=C(Cc1cn2ccccc2n1)Nc1ccccc1
51	> 1500	O=C(Cc1ccccc1)Nn1cnc2ccccc21
89	> 1500	CCN(CC)c1ccc(C(=O)NN)cc1
93	> 1500	N=C(N)SCc1ccccc1Cl
45	> 1500	N=C(N)c1ccc(C(F)(F)F)cc1
